Columns and labels:
[1] = system: H358 cells (NCIH358_LUNG); test: Anti-proliferation experiment on tumor cells with KRAS mutations, H358 (3D CellTiter-Glo); type: cell-based; details: Homo sapiens, NCI-H358, 120 h, 5 days incubation with compound, ultra-low attachment plate
Source text: (§1) Cell culture medium, penicillin/streptomycin antibiotics purchased from Wisent, and fetal bovine serum purchased from Biosera; 3D CellTiter-Glo (chemiluminescence detection reagent for cell viability) reagent purchased from Promega; Cell lines purchased from Nanjing Cobioer Biosciences Co., Ltd. and Wuhan Procell Life Science & Technology Co., Ltd; and Envision multimode microplate reader (PerkinElmer).
(§2) Different types of tumor cells were each seeded in an ultra-low attachment 96-well U-bottom plate, with 80 μL of cell suspension per well. The cell plate was incubated in a CO2 incubator overnight.
(§3) Each test compound was diluted in a 5-fold gradient to the 9th concentration (i.e., from 2 mM to 5.12 nM or from 200 μM to 0.512 nM) using a multi-channel pipette, with duplicate wells set up. 78 μL of medium was added to an intermediate plate, and the serially diluted compound was transferred to the corresponding wells of the intermediate plate at 2 μL/well. The mixture was mixed well and then transferred to the cell plate at 20 µL/well. The concentration of the compound transferred to the cell plate ranged from 10 μM to 0.0256 nM or from 1 μM to 0.00256 nM. The cell plate was then incubated in a CO2 incubator for 3-6 days.
(§4) The chemiluminescence detection reagent for cell viability was added to the cell plate at 100 μL/well, and the luminescence signals were stabilized by incubation for 10 min at room temperature. Readings were taken using the multimode microplate reader.
(§5) The original data were converted to inhibition rates and then the IC50 values were obtained by curve fitting using a four-parameter method (obtained from the “log(inhibitor) vs. response—Variable slope” model in GraphPad Prism). Table 2 illustrates the inhibitory activity of the compounds disclosed herein against the proliferation of different types of tumor cells.

[2] = system: MiaPaCa-2 cells (MIAPACA2_PANCREAS); test: Anti-proliferation experiment on tumor cells with KRAS mutations, MiaPaCa-2 (3D CellTiter-Glo); type: cell-based; details: Homo sapiens, MIA PaCa-2, 72 h, 3 days incubation with compound, ultra-low attachment plate
Source text: as §1, §2, §3, §4, §5

[3] = In-vivo pharmacokinetic study in mice; parameters: species or system male CD-1 mice; details: male, CD-1, mouse, plasma
Method: This experiment was intended to evaluate the pharmacokinetic behavior of each compound after a single intravenous injection and intragastric administration and to investigate the bioavailability after intragastric administration.
Male CD-1 mice aged 7 to 10 weeks were selected. The mice were fasted for at least 12 h before administration and were allowed to feed again 4 h after administration, with free access to water throughout the experiment.
On the day of the experiment, animals in the intravenous group were given the corresponding compound by a single injection via the tail vein at an administration volume of 5 mL/kg; animals in the oral group were given the corresponding compound by a single intragastric administration at an administration volume of 10 mL/kg. The animals were weighed before administration, and the administration volume was calculated based on their body weight. Sample collection time points: For the injection group, samples were collected at 0.083 h, 0.25 h, 0.5 h, 1 h, 2 h, 4 h, 8 h, and 24 h; for the intragastric group, samples were collected at 0.25 h, 0.5 h, 1 h, 2 h, 4 h, 6 h, 8 h, and 24 h. At each time point, approximately 30 μL of whole blood was collected via the saphenous vein, which was then used to prepare plasma for concentration determination by high performance liquid chromatography-tandem mass spectrometry (LC-MS/MS). All animals were euthanized with […] after the PK samples were taken at the last time point. The plasma concentrations were processed using a non-compartmental model of the pharmacokinetic software WmnNonlin™ Version 6.3 (Pharsight, Mountain View, CA), and the pharmacokinetic parameters were calculated using a linear log-trapezoidal method.

[4] = system: ERK phosphorylation in H358 cells; test: Inhibitory activity against ERK phosphorylation in H358 cells (HTRF Phospho-ERK1/2 kit); type: cell-based; details: Homo sapiens, NCI-H358; starved H358 cells, 1 h compound incubation; read-out: H358 cell ERK phosphorylation IC50
Method: H358 cells purchased from Nanjing Cobioer Biosciences Co., Ltd., 1640 medium purchased from Biological industries, fetal bovine serum purchased from Biosera, and Advanced Phospho-ERK1/2 (THR202/TYR204) KIT purchased from Cisbio.
• 1. H358 cells were plated in a transparent 96-well cell culture plate, with 80 μL of cell suspension per well, each well containing 10000 H358 cells. The cell plate was incubated in a CO2 incubator at 37° C. overnight. • 2. The cell supernatant was discarded, and a starvation medium (1640+0.02% fetal bovine serum+1% […]) was added at 80 μL/well. The cell plate was then incubated in a CO2 incubator for cell starvation treatment overnight; • 3. Each test compound was diluted with 100% DMSO to 4 mM as the first concentration, and then diluted in a 5-fold gradient to the 8th concentration (i.e., from 4 mM to […]) using a pipette. 1 μL of the compound was then added to 79 μL of cell starvation medium. The mixture was mixed well, and then the compound solution was added to the corresponding wells of the cell plate at 20 μL/well. The cell plate was then put back to the CO2 incubator for incubation for another 1 h. At that time, the concentration of the compound ranged from 10 μM to 0.0256 nM, with the concentration of DMSO being 0.25%. • 4. After the incubation was completed, the cell supernatant was discarded, and a cell lysis buffer was added at 50 μL/well. The plate was then incubated with shaking at room temperature for 30 min. 5. The Phospho-ERK1/2 Eu Cryptate antibody and Phospho-ERK1/2 d2 antibody were diluted in a 20-fold gradient with the Detection buffer. • 6. 16 μL of the cell lysate supernatant from each well was transferred to a new 384-well white microplate, and then 2 μL of the Phospho-ERK1/2 Eu Cryptate antibody dilution and 2 μL of the Phospho-ERK1/2 d2 antibody dilution were added to each well. The mixture was incubated at room temperature for 4 h. • 7. After the incubation was completed, HTRF values were read using a multimode microplate reader, with an excitation wavelength of 320 nm and emission wavelengths of 615 nm and 665 nm.
The original data were converted to inhibition rates and then the IC50 values were obtained by curve fitting using a four-parameter method.

[5] = iv, injection (tail vein), dose 2 mg/kg
[6] = oral administration, dose 10 mg/kg
[7] = iv, injection (tail vein), dose 1 mg/kg
[8] = oral 2 mg/kg vs injection 1 mg/kg
[9] = oral administration, dose 2 mg/kg

Row | IC50 [1] [nM] | IC50 [2] [nM] | AUC(0-t) [3, 5] [µM·h] | clearance [3, 5] [mL/min/kg] | bioavailability ([3]; oral 10 mg/kg vs injection 2 mg/kg) [%] | AUC(0-t) [3, 6] [µM·h] | Cmax [3, 6] [nM] | IC50 [4] [nM] | AUC(0-t) [3, 7] [µM·h] | clearance [3, 7] [mL/min/kg] | bioavailability [3, 8] [%] | AUC(0-t) [3, 9] [µM·h] | Cmax [3, 9] [nM] | Compound
1 | 22.1 | 22.6 | 2.53 | 27.7 | 69.5 | 8.6 | 3540 | 21.2 |  |  |  |  |  | Cc1nc(N2CCC3(CC2)Cn2nccc2C3N)c(CO)nc1Sc1ccnc(N)c1Cl (centres unmarked) [Compound 1]
2 | 61.4 | 24.4 |  |  |  |  |  | 84.1 | 1.32 | 27 | 83.6 | 2.04 | 927 | CNc1nccc(Sc2nc(CO)c(N3CCC4(CC3)Cn3nccc3C4N)nc2C)c1Cl (centres unmarked) [Compound 2]
3 | 145 | 56.9 |  |  |  |  |  | 75.8 | 0.974 | 35.5 | 58.6 | 0.99 | 372 | Cc1nc(N2CCC3(CC2)Cn2nccc2C3N)c(CO)nc1Sc1cccnc1C(F)(F)F (centres unmarked) [Compound 4]
4 | 120 | 62.1 |  |  |  |  |  | 57.1 | 0.638 | 68.3 | 89.8 | 0.817 | 463 | Cc1nc(N2CCC3(CC2)Cn2nccc2C3N)c(CO)nc1Sc1ccnc(N)c1F (centres unmarked) [Compound 6]

Source: US20240409543A1, “PYRROLOPYRAZOLE SPIRO COMPOUND” (CHIA TAI TIANQING PHARMACEUTICAL GROUP CO., LTD., priority 2021, published 2024)
